Measurements from PubChem BioAssay (NCI).
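Step 1: Grow cells in 96-well plates. Step 2: Expose to compound for 48 hours at 5 concentrations. Step 3: Interpolate endpoints linearly; if unreached, use highest concentration. Abbreviation: GI50, concentration required for 50% inhibition of growth. TGI: concentration producing complete growth inhibition.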

Legend:
Assay in all cases: NCI tumour cell line growth inhibition, 48 h
[1] = tested on: NCI-H226 lung
[2] = tested on: NCI-H23 lung
[3] = tested on: NCI-H460 lung
[4] = tested on: NCI-H522 lung
[5] = tested on: NCI/ADR-RES ovarian
[6] = tested on: OVCAR-3 ovarian
[7] = tested on: OVCAR-4 ovarian
[8] = tested on: OVCAR-5 ovarian
[9] = tested on: PC-3 prostate
[10] = tested on: RPMI-8226 leukemia
[11] = tested on: SF-268 CNS
[12] = tested on: SF-295 CNS
[13] = tested on: SF-539 CNS
[14] = tested on: SK-MEL-2 melanoma
[15] = tested on: SK-MEL-28 melanoma
[16] = tested on: SK-MEL-5 melanoma
[17] = tested on: SK-OV-3 ovarian
[18] = tested on: SN12C renal
[19] = tested on: SNB-19 CNS
[20] = tested on: SNB-75 CNS
[21] = tested on: SR leukemia
[22] = tested on: SW-620 colon
[23] = tested on: T-47D breast
[24] = tested on: TK-10 renal
[25] = tested on: U251 CNS
[26] = tested on: UACC-62 melanoma
[27] = tested on: UO-31 renal

Question: What does the source list for `COC(=O)c1cc2c(cc1Cl)SC(N(N(C)C)S(=O)(=O)c1ccc(Br)s1)=NS2(=O)=O`?
Answer: GI50 [1]: 52.1 µM; TGI [1]: > 100 µM; GI50 [2]: 28.5 µM; TGI [2]: 70.9 µM; GI50 [3]: 22.4 µM; TGI [3]: 43.9 µM; GI50 [4]: 17.9 µM; TGI [4]: 42.1 µM; GI50 [5]: 23.7 µM; TGI [5]: 59.9 µM; GI50 [6]: 21.6 µM; TGI [6]: 56.9 µM; GI50 [7]: 19.2 µM; TGI [7]: 53.7 µM; GI50 [8]: 29.8 µM; TGI [8]: 81.1 µM; GI50 [9]: 16 µM; TGI [9]: 35.1 µM; GI50 [10]: 25.4 µM; TGI [10]: 74.1 µM; GI50 [11]: 27.4 µM; TGI [11]: 67.3 µM; GI50 [12]: 33.2 µM; TGI [12]: 97.3 µM; GI50 [13]: 21.2 µM; TGI [13]: 51.5 µM; GI50 [14]: 3.2 µM; TGI [14]: 9.66 µM; GI50 [15]: 17.8 µM; TGI [15]: 35.3 µM; GI50 [16]: 15.8 µM; TGI [16]: 29.4 µM; GI50 [17]: 28 µM; TGI [17]: 66.7 µM; GI50 [18]: 30.5 µM; TGI [18]: > 100 µM; GI50 [19]: 21.2 µM; TGI [19]: 58.4 µM; GI50 [20]: 30.5 µM; TGI [20]: 88.7 µM; GI50 [21]: 13.3 µM; TGI [21]: 35.4 µM; GI50 [22]: 18.6 µM; TGI [22]: 36.3 µM; GI50 [23]: 12.8 µM; TGI [23]: 43.1 µM; GI50 [24]: 29.7 µM; TGI [24]: 82.1 µM; GI50 [25]: 30.2 µM; TGI [25]: 88.2 µM; GI50 [26]: 21.4 µM; TGI [26]: 50.6 µM; GI50 [27]: 27.3 µM; TGI [27]: 81.3 µM
